Test results from US20250136556A1, “NOVEL MODULATORS OF THE ARYL HYDROCARBON RECEPTOR AND METHODS OF USE THEREOF” (Allianthera (Suzhou) Biopharmaceutical Co., Ltd., priority 2021, published 2025).
Where two headings read alike, the source gives them in different places.

Assays:
[1] = tested on: AHR-regulated gene CYP1A1; experiment: AHR-regulated CYP1A1 expression in human monocytic U937 cell line (qPCR); settings: U937 cells, 16 hours, CYP1A1 relative to GAPDH
Procedure: To evaluate the AHR agonist activity of the test compounds, quantitative PCR analysis was used to determine expression level of the AHR-regulated gene CYP1A1 in a human monocytic U937 cell line. U937 cells were seeded at a concentration of 5×10^5 cells/well in 200 μL of growth medium in 96-well cell culture microplates. CYP1A1 expression was induced with AHR agonists described in literature as a positive control or the test compounds for 16 hours. […] Unstimulated cells were used as the negative control. Taqman probes for human CYP1A1 (Hs01054797_g1) and human GAPDH (Hs02786624_g1) were used to analyze fold expression of CYP1A1 of GAPDH.

[2] = target: T1, Human Aryl Hydrocarbon Receptor (AHR) (Homo sapiens, UniProt P35869); experiment: AHR agonist reporter assay in human cell line (INDIGO luciferase reporter); type: cell-based; settings: reporter cells; for EC50: 24 hours incubation; for AHR % activation to Tapinarof at 1 μM: 24 hours, value in brackets;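 for all read-outs here: firefly luciferase luminescence read on a plate reader, values normalized against positive and negative controls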
T1 construct: purchased INDIGO Bioscience IB06001-32; host or cells: AHR Reporter Cell (proprietary kit cells)
T1 sequence (P35869 11-848): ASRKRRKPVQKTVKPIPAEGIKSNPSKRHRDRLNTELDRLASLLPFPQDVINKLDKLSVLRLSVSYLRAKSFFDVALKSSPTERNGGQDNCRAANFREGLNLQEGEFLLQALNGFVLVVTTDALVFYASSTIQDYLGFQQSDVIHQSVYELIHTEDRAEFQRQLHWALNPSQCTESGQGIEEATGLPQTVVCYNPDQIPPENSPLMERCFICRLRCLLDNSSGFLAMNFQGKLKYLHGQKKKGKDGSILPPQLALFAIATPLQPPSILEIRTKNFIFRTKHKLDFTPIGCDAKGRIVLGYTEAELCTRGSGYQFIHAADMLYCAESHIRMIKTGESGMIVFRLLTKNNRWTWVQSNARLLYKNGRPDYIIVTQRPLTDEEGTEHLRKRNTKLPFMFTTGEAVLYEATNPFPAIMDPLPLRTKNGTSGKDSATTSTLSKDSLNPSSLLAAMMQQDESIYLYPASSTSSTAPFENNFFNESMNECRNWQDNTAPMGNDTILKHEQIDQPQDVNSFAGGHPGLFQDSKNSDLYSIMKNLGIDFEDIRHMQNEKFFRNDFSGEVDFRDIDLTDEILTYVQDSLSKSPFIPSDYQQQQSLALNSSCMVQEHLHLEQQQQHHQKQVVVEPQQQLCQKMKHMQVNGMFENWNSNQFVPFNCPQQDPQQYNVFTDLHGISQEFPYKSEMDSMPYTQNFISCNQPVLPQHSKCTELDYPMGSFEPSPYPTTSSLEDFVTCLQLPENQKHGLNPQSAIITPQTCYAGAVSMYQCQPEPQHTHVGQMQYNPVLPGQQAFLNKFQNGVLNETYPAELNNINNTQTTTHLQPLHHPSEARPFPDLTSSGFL
Procedure: The AHR reporter assay was performed following the protocol of the Human Aryl Hydrocarbon Receptor (AHR) Reporter Assay System (INDIGO Bioscience, #IB06001-32). AHR Reporter Cell was thawed and pre-incubated in Cell Recovery Medium (CRM) for 6 hours. […] Following 24 hours incubation, the media was removed and Luciferase Detection Reagent (LDR) added. The firefly luciferase activity was quantified using a plate reader. Results were normalized by positive and negative controls.

[3] = tested on: IL-6 gene expression in human primary M1 macrophage cells; experiment: AHR-regulated IL-6 inhibition in human primary M1 macrophage (qPCR); type: cell-based; settings: LPS/IFN-gamma/GM-CSF, 24 hours; for IC50: read-out: M1 assay IL6 -IC50
Procedure: Human M1 macrophage was differentiated from PBMC. Briefly, at day 1, monocytes were isolated from human PBMC using EasySe Human Monocyte Enrichment Kit without CD16 Depletion (Stemcell, 19058). The isolated monocytes were seeded at 3×10^7 cells in 15 cm dish using 30 ml medium containing 50 ng/ml GM-CSF (R&D, 215-GM-050/CF). At day 5, 30 ml fresh medium containing 50 ng/ml GM-CSF was added. At day 8, 1.5×10^5 cells/well were re-seeded into 24 wells plate, and 500 ul medium containing 10 ng/ml LPS (Sigma, L7770), 20 ng/ml IFN-gamma (PeproTech, 300-02), 50 ng/ml GM-CSF and the test compounds was added. […] The IL-6 expression was inhibited with AHR agonists described in literature as the positive inhibition control, alternatively the un-stimulated cells were used as the negative inhibition control. […] The primers for human GAPDH (F: […]; R: […]) and human IL-6 (F: […]; R: […]) were used to analyze fold expression of IL-6 of GAPDH by quantitative PCR.

[4] = tested on: Human Nuclear Factor (erythroid-derived2)-like 2 (Nrf2); experiment: Nrf2 transcription factor activity reporter assay in human cell line (INDIGO luciferase reporter); type: cell-based; settings: reporter cells; for EC50: 24 hours incubation; for Nrf2 % activation to Tapinarof at 9 μM: 24 hours, value in brackets
Procedure: The Nrf2 reporter assay was performed following the protocol of the Human Nuclear Factor (erythroid-derived2)-like 2 (Nrf2) Reporter Assay System (INDIGO Bioscience, #IB10001). Nrf2 Reporter Cell was thawed and pre-incubated in Cell Recovery Medium (CRM) for 6 hours. The media was then removed and the cells were incubated with Compound Screening Medium (CSM) in the absence (negative control) or presence of increasing concentrations of test compounds (typical dilution: 128 pM, 640 pM, 3.2 nM, 16 nM, 80 nM, 400 nM, […] in duplicates) for 24 hours. For positive control, cells activated with CDDO or Nrf2 agonists described in literature. Following 24 hours incubation, the media was removed and Luciferase Detection Reagent (LDR) added. The firefly luciferase activity was quantified using a plate reader. Results were normalized by positive and negative controls.

[5] = first line of cell, read-out: AHR reEC50
[6] = second line of cell, read-out: AHR abEC50
[7] = first line of cell, read-out: Nrf2 reEC50
[8] = second line of cell, read-out: Nrf2 EC50, second line of cell (head does not name it)

CYP1A1 (% activation to Tapinarof at 1 μM) [1] [%]	EC50 [2, 5] [nM]	EC50 [2, 6] [nM]	AHR % activation to Tapinarof at 1 μM [2] [%]	EC50 [4, 7] [nM]	EC50 [4, 8] [nM]	SMILES	M1 assay IL6 -max % inhibition (% to no treatment) [3] [%]	IC50 [3] [nM]	Nrf2 % activation to Tapinarof at 9 μM [4] [%]
95.6	38100	53.4	104.6	34.9	73.7	CC(C)c1c(O)cc(-c2nc3ccccc3o2)cc1O [Compound 49]	90.30	3.14	69.7
34.0	166	241	69.5	70.8	149	CC(C)c1ncc(/C=C/c2ccccc2)cc1O [Compound 103, (E)-2-isopropyl-5-styrylpyridine-3-ol]	84.90	92.6	78.8
